# How the values were obtained:
# [1] = test system: naturally aged C57BL6J mice; assay: SA-β-gal staining in organs of naturally aged mice, Example 21-3, Table 19; assay type: in vivo, mouse; settings: staining area, untreated aged = 100
# Protocol: 22-month-old female C57BL6J mice (KRIBB Laboratory Animal Resource Center) were acclimated to the experimental environment for one week, after which the aged mice were randomly assigned to experimental and control groups. Eight-week-old, non-aged mice served as controls. LX-403 was mixed in a 10% ethanol solution of PEG400 and administered orally at a concentration of 25 mg/kg daily for 21 days, or administered to the skin, joints, or eyes at a concentration of 1 μM. LX-1801 was mixed in distilled water with 4% DMSO, 30% PEG300, and 5% Tween80 and administered to the skin, joints, or eyes at a concentration of 0.4 μM daily for 21 days. LX-2001 was mixed in PBS and administered to the skin, joints, or eyes at a concentration of […] daily for 21 days. LX-2002 was mixed in distilled water with 4% DMSO, 30% PEG300, and 5% Tween80 and administered to the skin, joints, or eyes at a concentration of 2 μM daily for 21 days. […] LX-2005 was mixed in distilled water with 4% DMSO, 30% PEG300, and 5% Tween80 and administered to the skin, joints, or eyes at a concentration of 90 μM daily for 21 days. LX-2007 was mixed in distilled water with 4% DMSO, 30% PEG300, and 5% Tween80 and administered to the skin, joints, or eyes at a concentration of 90 μM daily for 21 days. […] LX-3002 was mixed in distilled water with 4% DMSO, 30% PEG300, and 5% Tween80 and administered orally at a concentration of 10 mg/kg daily for 21 days. […] LX-5411 was mixed in 5% PBS and administered orally at a concentration of 10 mg/kg daily for 21 days or administered to the skin, joints, or eyes at a concentration of 3 μM. LX-5701 was mixed in PBS and administered orally at a concentration of 360 mg/kg daily for 21 days. LX-6807 was mixed in saline and administered intraperitoneally at a concentration of 1 mg/kg daily for 21 days. LX-2101 or LX-2102 was mixed in PBS solution with 5% DMSO and administered intraperitoneally at a concentration of 20 mg/kg or 10 mg/kg, respectively, daily for 21 days. The control group received only the solution in the same volume. After the end of drug administration, the methods described in each example below were performed.
# Mice were sacrificed, tissue sections were prepared from each organ, and stained for the senescence-associated marker (SA-β-gal) using the same method as in Example 7-3 of WO2023-085787 A1.
# [2] = test system: obesity-induced aged C57BL6J mice; assay: Diabetes and complications (HbA1c, wound size, VEGF mRNA) in obesity-aged mice, Example 23-6, Table 46; assay type: in vivo, mouse; settings: for VEGF mRNA: eye, qRT-PCR, amount after aging calculated as 100%; for diabetic foot ulcer size: full-thickness 5 mm×5 mm wound, untreated 4.2 (±0.4); for diabetic foot ulcer size / HbA1c: obesity-induced diabetes mice; for HbA1c: serum, daily for 21 days, untreated 6.9 (±1.5)
# Protocol: 15-week-old male C57BL6J mice (The Jackson Laboratory) were induced to obesity by a high-fat diet using the same method as in Example 9-1 WO2023-085787 A1. After acclimation to the experimental environment for one week, the mice were randomly assigned to experimental and control groups. […] LX-3002 was mixed in distilled water with 4% DMSO, 30% PEG300, and 5% Tween80 and administered orally at a concentration of 10 mg/kg daily for 21 days. LX-5701 was mixed in PBS and administered orally at a concentration of 360 mg/kg daily for 21 days. LX-6807 was mixed in saline and administered intraperitoneally at a concentration of 1 mg/kg daily for 21 days. The control group received only the solution in the same volume. After the end of drug administration, the methods described in each example below were performed.
# Serum collected from mice using the same method as in Example 7-5 of WO2023-085787 A1 was used to measure glycated hemoglobin (HbA1c), a marker of hyperglycemia and diabetes. Furthermore, the improvement in diabetic foot ulcers and diabetic retinopathy, major complications of diabetes, was analyzed. Specifically, a diabetic foot ulcer model was created by creating a full-thickness 5 mm×5 mm wound on the left dorsal skin of mice induced with obesity-induced diabetes. The wound size was measured under untreated and treated conditions with the test compound, and the healing effect was analyzed. In addition, the mRNA amount of VEGF, a marker of angiogenesis in retinopathy, was measured from the eye using qRT-PCR as described in Example 7-2 of WO2023-085787 A1. The qRT-PCR results were calculated as 100% for the amount of each factor after aging was induced, and compared with the amount of each factor after treatment with the test compound.
# [3] = test system: obesity-induced aged C57BL6J mice; assay: Fatty liver (Oil Red O, AST, ALT) in obesity-aged mice, Example 23-5, Table 45; assay type: in vivo, mouse; settings: daily for 21 days, untreated 100%; for ALT / AST: serum; for Oil Red O: staining area, liver
# Protocol: After acclimation to the experimental environment for one week, the mice were randomly assigned to experimental and control groups. […] The control group received only the solution in the same volume. After the end of drug administration, the methods described in each example below were performed.
# SHR/Izm rats = assay: Geriatric hypertension in SHR/Izm rats (p16 mRNA, blood pressure), Example 30, Table 54; assay type: in vivo, rat; settings: for Blood pressure: tail cuff, untreated 195 (±13.3); for p16 mRNA: thoracic aorta, untreated 100%
# Protocol: Ten-week-old male SHR/Izm rats (SLC), a model of essential hypertension, were acclimated to the experimental environment for one week. […] The control group received only the solution in the same volume. After drug administration, the blood pressure of the experimental animals was measured, and RNA was extracted from the thoracic aorta in the same manner as in Example 7-2 of WO2023-085787 A1. The synthesized cDNA was used for qRT-PCR. Blood pressure measurements were performed three times using a blood pressure monitor (IITC) after the animals were allowed to rest for approximately 10 minutes in a measuring holder with a cuff attached to the caudal vein. […] The mRNA levels after aging were calculated as 100% and compared with the mRNA levels of p16 after treatment with the test compound.
Molecule,"SA-β-gal (%), Kidney [1]","SA-β-gal (%), Liver [1]","SA-β-gal (%), Lung [1]","SA-β-gal (%), Skin [1]","SA-β-gal (%), eWAT [1]",VEGF mRNA [2],diabetic foot ulcer size [2],HbA1c [2],ALT [3],AST [3],Oil Red O [3],Blood pressure (SHR/Izm rats),p16 mRNA (SHR/Izm rats)
"CC1(C)CC[C@]2(NC(=O)C(C)(F)F)CC[C@]3(C)[C@H](C(=O)C=C4[C@@]5(C)C=C(C#N)C(=O)C(C)(C)[C@@H]5CC[C@]43C)[C@@H]2C1 [LX-2101, Omaveloxolone]",51 (±12.5) %,71 (±5.5) %,72 (±8.8) %,75 (±11.8) %,32 (±16.2) %,–,–,–,–,–,–,–,–
"COC(=O)[C@]12CCC(C)(C)C[C@H]1[C@H]1C(=O)C=C3[C@@]4(C)C=C(C#N)C(=O)C(C)(C)[C@@H]4CC[C@@]3(C)[C@]1(C)CC2 [LX-2102, Bardoxolone methyl]",62 (±8.6) %,68 (±6.8) %,59 (±14.6) %,77 (±5.4) %,49 (±9.7) %,–,–,–,–,–,–,–,–
"CCCC\C=C/C=C/C=C\CCCCCCCC(=O)O [LX-2707, Punicic acid]",–,–,–,–,–,76 (±4.0) %,3.4 (±0.3) mm,6.1 (±0.6) %,64 (±3.1) %,75 (±2.1) %,67 (±1.7) %,160.1 (±23.1) mmHg,64 (±8.5) %
O=C1C2CCN(CC2)C1CNC(=O)C(F)(F)F (stereo not shown) [LX-5701],77 (±8.1) %,65 (±4.8) %,62 (±9.6) %,76 (±6.9) %,48 (±3.9) %,61 (±10.6) %,3.0 (±0.9) mm,5.0 (±1.3) %,64 (±7.9) %,69 (±8.8) %,55 (±17.2) %,159.8 (±15.5) mmHg,73 (±5.2) %
"Cc1cccc([C@H](C)c2cnc[nH]2)c1C [LX-6807, Dexmedetomidine]",–,–,–,–,–,68 (±1.6) %,3.3 (±0.5) mm,5.4 (±0.5) %,70 (±6.4) %,66 (±4.4) %,53 (±3.9) %,157.8 (±19.3) mmHg,66 (±5.0) %
Tocofersolan [LX-3001],–,–,–,–,–,77 (±2.4) %,3.5 (±0.2) mm,6.4 (±0.4) %,71 (±1.3) %,–,83 (±4.0) %,172.9 (±14.6) mmHg,71 (±3.6) %

# — US20260306460A1, “COMPOSITION FOR REMOVING AND INHIBITING SENESCENT CELLS, AND USES THEREOF” (LIFECEUTIX CO., LTD., priority 2023, published 2026)
